# Source: paper PMC5628579, “Potent mechanism-based sirtuin-2-selective inhibition by an in situ-generated occupant of the substrate-binding site, “selectivity pocket” and NAD^+-binding site” (Chemical Science, 2017)
# Experiments:
# [1] = tested on: acetylated α-tubulin (SIRT2 substrate); experiment: Western blot of acetylated α-tubulin in MDA-MB-231 cells; assay type: cell-based, human; settings: 20 μM, 6 h
# Method: MCF-7 and MDA-MB-231 cells were plated in 96-well plates (initial density: 1 × 10^3 cells per well) and incubated at 37 °C. After 24 h, test compound solutions (50 μL/well) of varying concentrations in medium (DMEM and Leibovitz's L-15 for MCF-7 and MDA-MB-231 cells respectively) for were added to the cells at 37 °C under 5% CO2 in air and left to react for 72 h. Thereafter, the mixtures were treated with 10 μL of AlamarBlue® (AbD Serotec, #BUF012A), incubation was continued at 37 °C for 3 h. The fluorescence in each well was measured with an ARVOTM X3 microplate reader (λex = 540 nm; λem = 590 nm). With the obtained fluorescence readings, it was possible to calculate the percentage of cell growth.
# MDA-MB-231 cells (5 × 10^5 cells/2 mL/dish) were treated for 6 h with the test compounds at the indicated concentrations in the cell culture medium, before the cells were collected and extracted with SDS buffer. The protein concentrations of the lysates were determined using a BCA protein assay.
# Equivalent amounts of protein from each lysate were resolved in 5–20% SDS-polyacrylamide gels and transferred onto PVDF membranes. […]
# For the differentiation study, the medium was changed to DMEM supplemented with 2% FBS. After incubation with or without 36 for 72 h, the cell morphology was examined using a microscope (Olympus CKX41) and further analyzed with the Photomeasure software (Kenis Ltd.). […]
# SIRT2 = molecular target: T1, SIRT2 (Homo sapiens, UniProt Q8IXJ6); experiment: SIRT2 substrate competition analysis and time-dependent inhibition; assay type: biochemical; parameters: purchased Biomol / Enzo Life Sciences (Fluor de Lys kit AK-556) BML SE-251-0500
# T1 sequence (Q8IXJ6 1-389): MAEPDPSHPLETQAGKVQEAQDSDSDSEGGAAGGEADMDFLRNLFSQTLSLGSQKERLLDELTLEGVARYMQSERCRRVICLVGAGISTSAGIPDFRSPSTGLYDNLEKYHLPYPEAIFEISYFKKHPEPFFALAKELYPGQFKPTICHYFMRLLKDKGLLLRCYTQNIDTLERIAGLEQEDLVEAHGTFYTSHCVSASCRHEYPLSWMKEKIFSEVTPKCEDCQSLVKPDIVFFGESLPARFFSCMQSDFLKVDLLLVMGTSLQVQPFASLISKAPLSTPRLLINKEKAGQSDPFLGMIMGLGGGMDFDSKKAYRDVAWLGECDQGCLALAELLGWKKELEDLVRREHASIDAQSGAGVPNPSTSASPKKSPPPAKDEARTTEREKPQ
# Method: added to the blank wells). […] Thereafter, […]
# which three independent curves were generated. […]
# added to the blank wells).
# The results were plotted using GraFit 7.0.3.
# SIRT2 substrate competition analysis for 36
# The assay follows in general the same procedure reported for the SIRT2 assay (vide supra), except for the following changes: reaction time = 45 min; [NAD+] = 2 mM; [substrate] = 50, 80, 150, or […]
# Mass spectrometric detection of the ADP-ribose conjugate
# Reactions were conducted for 5 min at 37 °C in 5 μL containing 1.9 μM SIRT2 (SignalChem), 500 μM NAD+ or 6-AE-NAD+ (BIOLOG Life Science Institute), and 1 mM 36, as well as 40 mM sodium phosphate buffer (pH = 7.0), containing 240 mM NaCl, 120 mM imidazole, 0.08 mM PMSF, 0.2 mM DTT, 20% glycerol, and 2% DMSO. Controls were measured in the absence of compounds or the enzyme. The reaction mixtures were diluted with 5 μL of water and purified using ZipTip-μC18 (Millipore). The fraction eluted with 2 μL of 50% acetonitrile containing α-cyano-4-hydroxycinnamic acid at a concentration of 5 mg/mL was directly subjected to MALDI-TOF MS analysis. MALDI-TOF mass spectra were acquired on an AB SCIEX TOF/TOF™ 5800 (AB SCIEX) in reflectron […]
# SIRT5 = molecular target: T2, SIRT5 (Homo sapiens, UniProt Q9NXA8); experiment: Fluor de Lys SIRT5 assay
# T2 sequence (Q9NXA8 37-310): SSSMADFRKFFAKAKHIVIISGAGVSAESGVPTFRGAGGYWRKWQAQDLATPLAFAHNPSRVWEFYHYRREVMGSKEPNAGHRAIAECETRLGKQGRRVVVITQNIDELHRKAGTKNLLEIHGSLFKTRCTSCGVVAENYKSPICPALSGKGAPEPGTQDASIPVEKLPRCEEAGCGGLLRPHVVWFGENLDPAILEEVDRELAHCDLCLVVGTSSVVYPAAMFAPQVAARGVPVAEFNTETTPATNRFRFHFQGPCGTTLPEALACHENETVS
smiles,measurement,setting,value
C[C@H](NC(=O)[C@H](CCCCNC(=S)CNC(=O)c1ccccc1Nc1cccc(OCCc2ccccc2)c1)NC(=O)OCc1ccccc1)C(N)=O [Compound 36],acetylated α-tubulin level (western blot),[1],induced the accumulation of acetylated α-tubulin
same,mode of SIRT2 inhibition (substrate competition analysis),"SIRT2; Lineweaver–Burk plot, NAD+ saturation",competitive inhibition with the acetylated lysine substrate
same,time dependence of SIRT2 inhibitory effect,"SIRT2; incubation 0–120 min with SIRT2, acetylated substrate, NAD+",time-dependent
same,inhibition at 10 µM,SIRT5; read-out: % inhibition at 10 μM SIRT5,4 ± 2.6%
same,inhibition at 50 µM,SIRT5; read-out: % inhibition at 50 μM SIRT5,10%
